Test results taken from PubChem BioAssay (NCI).
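96-well plates; 48 h exposure; 5 concentrations. Endpoints by linear interpolation between flanking doses. Not reached: highest tested concentration assigned. The concentration for 50% growth inhibition is given as GI50. The concentration for full growth arrest is given as TGI.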

What was measured:
Assay in all cases: DTP human tumour cell line panel, 48 h
CAKI-1 renal = tested on: CAKI-1 renal
HOP-92 NSCLC = tested on: HOP-92 NSCLC
M14 melanoma = tested on: M14 melanoma
NCI-H460 lung = tested on: NCI-H460 lung
SK-MEL-5 melanoma = tested on: SK-MEL-5 melanoma
SN12C renal = tested on: SN12C renal
SW-620 colon = tested on: SW-620 colon
UACC-257 melanoma = tested on: UACC-257 melanoma
NCI-H23 lung = tested on: NCI-H23 lung
SR leukemia = tested on: SR leukemia

Row | SMILES | TGI (CAKI-1 renal) | TGI (HOP-92 NSCLC) | TGI (M14 melanoma) | TGI (NCI-H460 lung) | TGI (SK-MEL-5 melanoma) | TGI (SN12C renal) | TGI (SW-620 colon) | TGI (UACC-257 melanoma) | TGI (NCI-H23 lung) | GI50 (CAKI-1 renal) | GI50 (M14 melanoma) | GI50 (NCI-H23 lung) | GI50 (NCI-H460 lung) | GI50 (SN12C renal) | GI50 (SR leukemia) | TGI (SR leukemia) | GI50 (SW-620 colon) | GI50 (UACC-257 melanoma) | GI50 (HOP-92 NSCLC) | GI50 (SK-MEL-5 melanoma)
1 | CCOC(=O)NC(=O)c1cn(CCCOC(=O)NCCCCCCNC(=O)OCCCn2cc(C(=O)NC(=O)OCC)c(=O)[nH]c2=O)c(=O)[nH]c1=O | 35 µM | 45.6 µM | 35.4 µM | > 100 µM | > 100 µM | > 100 µM | 93.6 µM | 37 µM | – | – | – | – | – | – | – | – | – | – | – | –
2 | CC1=NC(C(C)C)C(=O)O1 (stereo not drawn) | > 100 µM | > 100 µM | > 100 µM | > 100 µM | > 100 µM | > 100 µM | 25.8 µM | > 100 µM | > 100 µM | – | – | – | – | – | – | – | – | – | – | –
3 | NC1=CC(=O)c2nc3ccccc3c3ccnc1c23 | > 95.6 µM | – | 26.7 µM | 4.6 µM | – | > 74.1 µM | > 100 µM | 20 µM | 22.8 µM | 4.98 µM | 0.342 µM | 0.273 µM | 0.0908 µM | 5.59 µM | 2.47 µM | > 100 µM | 3.14 µM | 2.37 µM | – | –
4 | O=C1c2cc([N+](=O)[O-])cc3cc([N+](=O)[O-])cc(c23)C(=O)N1CCCNCCNCCCN1C(=O)c2cc([N+](=O)[O-])cc3cc([N+](=O)[O-])cc(c23)C1=O | 8.4 µM | 1.82 µM | 3.31 µM | 3.56 µM | 1.97 µM | 2.2 µM | 4.52 µM | 2.52 µM | 2.41 µM | – | – | – | – | – | – | – | – | – | – | –
5 | COC(=O)C1=C(CS(=O)c2ccc([N+](=O)[O-])cc2[N+](=O)[O-])ON(C)C1c1ccccc1 (stereo not drawn) | > 60.8 µM | – | > 100 µM | > 100 µM | > 100 µM | > 63.3 µM | 48.4 µM | > 100 µM | > 100 µM | – | – | – | – | – | – | – | – | – | – | –
6 | C=C(C)[C@@H]1CC[C@]2(C(=O)O)CC[C@]3(C)[C@H](CC[C@@H]4[C@@]5(C)C/C(=C/c6ccc(OC)cc6)C(=O)C(C)(C)[C@@H]5CC[C@]43C)[C@@H]12 | 11.5 µM | 3.36 µM | 3.9 µM | 3.92 µM | 4.12 µM | 5.9 µM | 4.61 µM | 6.93 µM | 8.25 µM | 2.16 µM | 1.67 µM | 2.44 µM | 1.82 µM | 2.07 µM | – | – | 1.95 µM | 2.1 µM | 0.738 µM | 2.03 µM
7 | O=C(NC1CCCCC1)NS(=O)(=O)c1ccc(-n2nc3c(c2-c2ccc(Cl)cc2)Cc2ccccc2-3)cc1 | 19.3 µM | 25 µM | > 100 µM | 46 µM | 40.2 µM | 30.3 µM | > 100 µM | 39.8 µM | – | 4.52 µM | 13.7 µM | – | 19.8 µM | 7.54 µM | – | – | 2.46 µM | 18.4 µM | 6.45 µM | 12.1 µM
8 | C=CC[C@@H]1/C=C(\C)C[C@H](C)C[C@H](OC)[C@H]2O[C@@](O)(C(=O)C(=O)N3CCCC[C@H]3C(=O)O[C@H](/C(C)=C/C3CC[C@@H](O)[C@H](OC)C3)[C@H](C)[C@@H](O)CC1=O)[C@H](C)C[C@@H]2OC (stereo partly drawn) | 33.4 µM | – | 28.6 µM | 27.9 µM | 26.6 µM | 31.6 µM | 32.2 µM | 30.6 µM | 32.7 µM | 12.9 µM | 14.9 µM | 16.3 µM | 13.7 µM | 16.3 µM | 14.1 µM | 39.8 µM | 16.5 µM | 15.8 µM | – | 13.7 µM
9 | O=C(c1nc2ccc(Cl)cc2[nH]c1=O)C(O)c1ccc2c(c1)OCO2 (stereo not drawn) | – | > 100 µM | > 100 µM | > 100 µM | – | – | > 100 µM | > 100 µM | > 100 µM | – | – | – | – | – | – | – | – | – | – | –
10 | Oc1ccc(-c2cn3cc(Cl)sc3n2)cc1 | > 100 µM | – | 56.8 µM | 53.5 µM | 78.1 µM | 94.8 µM | > 100 µM | > 100 µM | – | 41.5 µM | 20.1 µM | – | 12.9 µM | 0.248 µM | 4.51 µM | 18.8 µM | 56.9 µM | 46.2 µM | – | 29.8 µM
11 | COC1OC(COS(=O)(=O)c2ccc(C)cc2)C(O)C(OS(=O)(=O)c2ccc(C)cc2)C1OS(=O)(=O)c1ccc(C)cc1 (stereo not drawn) | > 100 µM | – | > 100 µM | > 100 µM | > 100 µM | > 100 µM | > 100 µM | > 100 µM | > 100 µM | – | – | – | – | – | – | > 100 µM | – | – | – | –
12 | CCOC(=O)C(C(=O)OCC)=C1N[C@H](C(=O)OCC)CS1 | > 100 µM | – | > 100 µM | > 100 µM | > 100 µM | > 100 µM | > 100 µM | > 100 µM | > 100 µM | – | – | – | – | – | – | > 100 µM | – | – | – | –
13 | Cc1c(-c2nnc(-c3ccc(F)cc3)o2)nnn1-c1ccnc2c(C(F)(F)F)cccc12 | > 100 µM | 76.9 µM | – | > 100 µM | > 100 µM | > 100 µM | > 100 µM | > 100 µM | > 100 µM | 29.5 µM | – | 65.7 µM | 30.4 µM | 41.3 µM | – | – | 31.9 µM | > 100 µM | 14.7 µM | 30.4 µM
